Structures are written as SMILES. Values joined by “and” are separate entries in the source; they are usually repeats but may differ in a detail not shown here. Equal values may be shown once.

Data set [1] concerns C57BL/6J mice after CSDS. Description: CSDS model, social interaction test. It is filed as in vivo. As to conditions: single i.p. injection 10 mg kg−1. As for the experimental part:
(§1) The 10‐day CSDS paradigm was conducted as previously described.^[ [24] ^] CD‐1 aggressive mice were singly housed in defeat cages on one side of a perforated plexiglass partition 24 h before the defeat session. Experimental C57BL/6J mice were placed daily on the resident cage side of a novel CD‐1 aggressor that rapidly initiated a physical attack on the intruder. After 10‐min of social defeat, the intruder mice were housed on the opposite side of the partition within a shared home cage, experiencing further sensory contact for the subsequent 24 h. In contrast, control mice were maintained in their home cages and allowed to explore the empty defeat cages for 10 min each day.
C57BL/6J mice, comprising both control and experimental groups, were placed individually into the social open field with a plexiglass enclosure positioned along the side wall. Movement parameters, including the time spent in the interaction zone, corner zones, and locomotion, were monitored and analyzed over the two test sessions using the AnyMaze Tracking System. In the first session, the mice freely explored the arena for 2.5 min. Then, a new aggressive CD‐1 mouse was introduced into the plexiglass enclosure, and the experimental mice returned to the arena for the second 2.5‐min session. The social interaction ratio was determined as the ratio between the time the experimental mice spent in the interaction zone when the target CD‐1 was present and the time spent in the zone when it was absent.

Data set [2] has as its system C57BL/6J mice. Description: DOI-induced head twitch response (HTR). Format: in vivo. As to conditions: 10 mg kg−1, 30-min test period. The method, then:
Male C57BL/6J mice were habituated to the testing chambers for 30 min and 24 h after receiving acute doses of (S)‐ketamine (10 mg kg^−1, i.p.) or JX3212 (10 mg kg^−1, i.p.). Thirty minutes later, the mice received DOI at a dose of 5 mg kg^−1 (i.p.), and the head‐twitch response was scored over 30 min.

Data set [3] concerns C57BL/6J mice. The data set is described as follows: Novelty-suppressed feeding test (NSFT). It is filed as in vivo. The method, then: The mice were individually housed in new cages and deprived of food for 24 h. The testing equipment was a brightly lit plastic box measuring 40 × 40 × 30 cm^3 with a light intensity of 1100–1200 lux. Each mouse was positioned in a corner of the device with one food pellet located at the center. The latency to start chewing food was recorded within 5 min. Immediately thereafter, the mice were placed back in their home cage with pre‐measured food, and the amount consumed in the next 5 min was used as a baseline to account for appetite changes that might affect the outcome.

Data set [4] relates to C57BL/6J mice after CSDS. Description: CSDS model, forced swim test. It is filed as in vivo. As for the experimental part: as §1
Mice were placed individually in a transparent glass cylinder (25 cm high, 10 cm wide) filled with water (temperature 23–25 °C) to a depth of 10 cm, and prevented from making contact with the bottom. Mice behaviors were videotaped from each side. The observation period lasted for 6 min, with the final 4 min used to measure immobile behavior, which was processed using the AnyMaze Tracking System (Stoelting).

Data set [5] concerns C57BL/6J mice after CSDS. Description: Chronic social defeat stress (CSDS) model, sucrose preference test. Format: in vivo. As for the experimental part: as §1
Mice were individually housed with two identical bottles containing either 1% sucrose solution or tap water for 24 h. The bottles were then replaced to eliminate potential positional bias, followed by an additional 24‐h period with the same solutions. Subsequently, the mice were provided with tap water for 24 h. During the experimental phase, new bottles filled with either 1% sucrose solution or tap water were presented for 24 h, and the bottles were changed every 12 h. The bottles were weighed both before and after the 24‐h test to assess consumption of each solution.

The test system of data set [6] is mice. The data set is described as follows: Rotarod test (RT). It is filed as in vivo. Particulars: chronic 10 mg kg−1 per day. The method, then: The rotarod test was designed to evaluate the coordination and motor performance of rodents. The speed and time were set for the rod rotators. All experimental mice were allowed to adapt to a lower speed (5 rpm). For the formal test, the mice were placed on a rod spinning at 20 rpm, and the duration that the mice were able to hold on the rod at this speed was recorded. The maximum test duration was 20 min.
On the technique in general: The rotarod test checks motor coordination on a turning rod.

Data set [7] concerns mice. The data set is described as follows: Treadmill test (TT). It is filed as in vivo. As to conditions: chronic 10 mg kg−1 per day. As for the experimental part: This test was designed to quantify locomotor endurance in rodents. The time (300 s) and speed (maximum: 30 rpm) parameters for the treadmill were set using a digital panel and the mice were placed in lanes. Gentle electrical probes (0.3 mA) served as motivational stimuli. Total distance traveled was automatically recorded using rotary encoder integration.

Data set [8] has as its system mice. Description: Y-maze. Format: in vivo. Particulars: chronic 10 mg kg−1 per day. The method, then:
This test was designed to evaluate spatial working memory. Briefly, mice were individually placed in a symmetrical Y‐maze and allowed to explore for 8 min. Entries were counted only when both hind paws crossed the arm threshold. Correct spatial alternation was defined as an entry into all three arms in an uninterrupted sequence (e.g., ABC, BCA or CAB each representing one alternation). The alternation percentage was derived as: [correct alternations/(total entries–2)] × 100%. After each session, the walls and floor of the maze were wiped with 75% ethanol and allowed to dry before the next animal was tested.

Data set [9] deals with mice. The data set is described as follows: 21-day chronic administration: body weight, organ weight, serum biochemistry.
The subject of data set [10] is C57BL/6J mice. Description: Open field test (OFT) after chronic administration. Format: in vivo. Particulars: chronic 10 mg kg−1 per day. As for the experimental part:
This test was used to assess anxiety‐related behaviors in the mice. C57BL/6J mice were individually habituated to a 40 × 40 × 40 cm^3 open field arena under dim light for […]. Locomotor activity during the final 5 min was digitally recorded (30 fps) and analyzed using Tracking Master (Future Life Science (Shanghai) Co., Ltd., Shanghai, China). The primary endpoints included the total ambulatory distance (cm) and center‐zone exploration frequency (20 × 20 cm^2 central area).

In data set [11] the test system is mice. Description: Shuttle box test (SBT). It is filed as in vivo. The method, then: This test was designed to measure learning and memory function in rodents. The shuttle box consists of two compartments connected by a freely passable gate. The mice were allowed to explore the test chamber freely for 5 min before the test to eliminate exploratory reflexes. Each mouse was placed in one compartment of the shuttle box. The conditioning protocol began with a 5‐s conditioned stimulus presentation of light (200 lux) and auditory tone (100 dB, 1000 Hz), followed immediately by a 3‐s footshock (300 µA) unconditioned stimulus. Escape to the opposite compartment during the conditioned stimulus presentation was scored as an active avoidance response, whereas escape occurring only after shock onset was recorded as […]. […] Each test session consisted of 40 trials with 10‐s inter‐trial intervals, with the number of active avoidance responses systematically recorded.

The mark [12] stands for this setting: single i.p. injection 10 mg kg−1.
Where [13] appears, read: serum, 10 mg/kg, 21-day chronic administration, individual animals.

As for `CN[C@]1(c2ccccc2Cl)CCCCC1=O` [(S)‐ketamine], in the data set with C57BL/6J mice after CSDS [1], the “CSDS: time spent in corners in SIT (in words)” value is “shorter duration spent in the corners”. Further, the “number of DOI-induced head twitches vs vehicle (in words)” value with C57BL/6J mice [2] is recorded as “significantly more”. For the same compound, in the data set with C57BL/6J mice [3] (single dose 10 mg kg−1 i.p., 1 h after administration), the “NSFT latency to feed (in words)” value was “significantly reduced the latency to feed”. The “FST immobility time after CSDS, single mice” value in the data set with C57BL/6J mice after CSDS [4] (10 mg/kg (Fig 3I)) was 77.33 and 102.37 and 98.48 and 95.78 and 108.86 and 103.57 and 122.58. Moreover, the “CSDS: immobility in FST (in words)” value in the data set with C57BL/6J mice after CSDS [4] (setting [12]) was “no significant impact”. The “SPT sucrose preference after CSDS, single mice” value in the data set on C57BL/6J mice after CSDS [5] (10 mg/kg (Fig 3H)) is 0.9625 and 0.9959 and 0.9967 and 0.7227 and 0.9713 and 0.6431 and 0.7826 and 0.9953. In addition, the “CSDS: sucrose preference in SPT (in words)” value with C57BL/6J mice after CSDS [5] (setting [12]) is “increased sucrose preference”.

On to `CN(C)CCCN1c2ccccc2CCc2ccccc21` [imipramine], for which the “rotarod falling latency vs vehicle (in words)” value in the data set on mice [6] is given as “notably reduced falling latency”. Also, in the data set on mice [7], the “treadmill running distance vs vehicle (in words)” value is “notably reduced”. Also, in the data set with mice [8], the “Y-maze alternation percentage vs vehicle (in words)” value is given as “significantly reduced”. Moreover, the “body weight during 21-day chronic administration (in words)” value in the data set on mice [9] (10 mg kg−1 per day, vs vehicle) was “marked increase in body weight”. Moreover, the Body weight with mice [9] (10 mg/kg, day 7, individual animals) was 24.5 (2×) and 25.5 (2×) and 25.8 and 25.3 and 24.2 and 25.4 and 24.9 and 26; with mice [9] (10 mg/kg, day 8, individual animals), 25.5 and 24.5 and 24.8 (2×) and 26.1 and 24.4 and 25.3 (2×) and 26.2 and 25.8; in the data set on mice [9] (10 mg/kg, day 9, individual animals) it was 26.3 and 25.3 (2×) and 26 and 25.4 and 25.8 and 26.4 and 24.8 and 25 and 24.6; with mice [9] (10 mg/kg, day 10, individual animals), 26.1 and 26 (2×) and 25.3 (3×) and 25.5 and 25.2 and 26.3 and 24.9; in the data set on mice [9] (10 mg/kg, day 11, individual animals) it was 26.1 (2×) and 25.7 (2×) and 24.8 and 24.6 and 24.4 and 25.4 and 26 and 24.7; in the data set on mice [9] (10 mg/kg, day 12, individual animals), 26.1 and 26.9 and 25 (2×) and 27.4 and 25.8 (2×) and 26.2 and 24.9 and 26.6. In addition, the Body weight in the data set with mice [9] (10 mg/kg, day 13, individual animals) was 25.3 (3×) and 26.2 and 26.5 and 27.2 and 26.4 and 27.3 and 25.6 (2×); with mice [9] (10 mg/kg, day 14, individual animals), 25.3 and 25.8 and 26.8 (2×) and 25.7 and 26.7 and 27.4 and 26.6 and 26.4 and 27.1; in the data set on mice [9] (10 mg/kg, day 15, individual animals), 27.1 and 25.5 and 25.4 and 25.6 and 26.4 (2×) and 25.8 and 27.3 and 26.3 and 26; in the data set with mice [9] (10 mg/kg, day 16, individual animals), 27.2 (2×) and 26.3 and 26.5 and 25.8 and 26.7 and 25.4 and 26.1 and 26.9 and 25.7. Moreover, in the data set with mice [9] (21-day administration), the “serum alanine aminotransferase level (in words)” value is “significant increase in alanine aminotransferase levels”. The “serum aspartate aminotransferase and urea levels (in words)” value with mice [9] (21-day administration) was “comparable”. Further, in the data set with mice [9] (21-day administration), the “serum creatinine level (in words)” value is on record as “marked decreases in creatinine levels”. Moreover, in the data set with mice [9] (setting [13]), the ALT is 39 and 34 and 31 and 33 and 48 and 37 and 52 and 40. The AST in the data set with mice [9] (setting [13]) was 151 and 169 and 124 and 111 and 168 and 222 and 112 and 198 and 207. For the same compound, in the data set with mice [9] (setting [13]), the Cr is 19 and 18 and 20 and 23 and 22. Moreover, in the data set with C57BL/6J mice [10], the “OFT total and central distance traveled (in words)” value was “no pronounced differences”. In the data set with mice [11] (chronic 10 mg kg−1 per day), the “shuttle box active avoidance responses (in words)” value is on record as “no significant differences”. Besides, the “SBT active avoidance responses, single mice” value with mice [11] (chronic 10 mg/kg per day (Fig 5G)) was 27 and 32 and 29 and 20 and 23 and 22. For the same compound, the “NSFT antidepressant-like effect (in words)” value with C57BL/6J mice [3] (imipramine 15 mg kg−1, single administration) was “failed to produce antidepressant‐like effects”. In the data set on C57BL/6J mice [3] (repeated administration, vs vehicle), the “food intake in home cage after NSFT (in words)” value is listed as “significant increase in food intake”. Also, in the data set on C57BL/6J mice [3] (seven days, imipramine 15 mg kg−1, JX3212 3/10 mg kg−1), the “NSFT antidepressant-like response after repeated administration (in words)” value is recorded as “elicited significant antidepressant‐like responses”.
